According to PMC9598367, “Discovery and Preliminary Structure-Activity Investigation of 3-Substituted-1H-imidazol-5-yl-1H-indoles with In Vitro Activity towards Methicillin-Resistant Staphylococcus aureus” (Antibiotics, 2022):

| melting point [°C] | Compound |
| --- | --- |
| 130 to 131 | COc1ccc(OC)c(CCn2cncc2-c2c[nH]c3cc(F)ccc23)c1 [Compound 31, 3-(1-(2,5-Dimethoxyphenethyl)-1H-imidazol-5-yl)-6-fluoro-1H-indole] |
| > 230 | Brc1cccc2[nH]cc(-c3cncn3CCc3c[nH]c4ccccc34)c12 [Compound 86, 3-(1-(2-(1H-Indol-3-yl)ethyl)-1H-imidazol-5-yl)-4-bromo-1H-indole] |
| 204 to 205 | Brc1cccc2[nH]cc(-c3cncn3CCc3ccccc3)c12 [Compound 55, 4-Bromo-3-(1-phenethyl-1H-imidazol-5-yl)-1H-indole] |
| > 230 | Fc1cccc2[nH]cc(-c3cncn3CCc3c[nH]c4ccccc34)c12 [Compound 81, 3-(1-(2-(1H-Indol-3-yl)ethyl)-1H-imidazol-5-yl)-4-fluoro-1H-indole] |
| 66 to 67 | COc1ccc2c(-c3cncn3Cc3ccccc3)c[nH]c2c1 [Compound 50, 3-(1-Benzyl-1H-imidazol-5-yl)-6-methoxy-1H-indole] |
| 107 to 108 | Clc1ccc2[nH]cc(-c3cncn3Cc3c[nH]c4ccccc34)c2c1 [Compound 76, 3-(1-((1H-Indol-3-yl)methyl)-1H-imidazol-5-yl)-5-chloro-1H-indole] |
| 47 to 48 | Clc1cccc2c(-c3cncn3CCc3ccccc3)c[nH]c12 [Compound 54, 7-Chloro-3-(1-phenethyl-1H-imidazol-5-yl)-1H-indole] |
| 201 to 202 | Brc1cccc2[nH]cc(-c3cncn3Cc3c[nH]c4ccccc34)c12 [Compound 78, 3-(1-((1H-Indol-3-yl)methyl)-1H-imidazol-5-yl)-4-bromo-1H-indole] |
| 99 to 100 | c1ccc(Cn2cncc2-c2ccccc2)cc1 [Compound 103, 1-Benzyl-5-phenyl-1H-imidazole] |
| 91 to 92 | Clc1ccc2c(-c3cncn3CCc3ccccc3)c[nH]c2c1 [Compound 20, 6-Chloro-3-(1-phenethyl-1H-imidazol-5-yl)-1H-indole] |
| 92 to 93 | COc1ccc(Cn2cncc2-c2c[nH]c3cccc(Br)c23)cc1 [Compound 63, 4-Bromo-3-(1-(4-methoxybenzyl)-1H-imidazol-5-yl)-1H-indole] |
| 152 to 153 | COc1ccc(-c2cncn2Cc2c[nH]c3ccccc23)cc1 [Compound 112, 3-((5-(4-Methoxyphenyl)-1H-imidazol-1-yl)methyl)-1H-indole] |
| 169 to 170 | COc1ccc(-c2cncn2CCc2c[nH]c3ccccc23)cc1 [Compound 114, 3-(2-(5-(4-Methoxyphenyl)-1H-imidazol-1-yl)ethyl)-1H-indole] |
| 83 to 84 | COc1ccc(-c2cncn2Cc2ccccc2)cc1 [Compound 104, 1-Benzyl-5-(4-methoxyphenyl)-1H-imidazole] |
| 187 to 188 | Fc1ccc2[nH]cc(-c3cncn3Cc3ccc(I)cc3)c2c1 [Compound 5, 5-Fluoro-3-(1-(4-iodobenzyl)-1H-imidazol-5-yl)-1H-indole] |
| 181 to 182 | COc1ccc(Cn2cncc2-c2c[nH]c3cc(F)ccc23)cc1 [Compound 13, 6-Fluoro-3-(1-(4-methoxybenzyl)-1H-imidazol-5-yl)-1H-indole] |
| 152 to 153 | COc1ccc2[nH]cc(-c3cncn3CCc3c[nH]c4ccccc34)c2c1 [Compound 87, 3-(1-(2-(1H-Indol-3-yl)ethyl)-1H-imidazol-5-yl)-5-methoxy-1H-indole] |
| 65 to 66 | COc1ccc(Cn2cncc2-c2c[nH]c3cc(OC)ccc23)cc1 [Compound 65, 6-Methoxy-3-(1-(4-methoxybenzyl)-1H-imidazol-5-yl)-1H-indole] |

| melting point [°C] | Compound |
| --- | --- |
| 56 to 57 | COc1ccc(CCn2cncc2-c2c[nH]c3cccc(F)c23)cc1 [Compound 66, 4-Fluoro-3-(1-(4-methoxyphenethyl)-1H-imidazol-5-yl)-1H-indole] |
| > 200 | Brc1ccc2c(-c3cncn3Cc3ccc(I)cc3)c[nH]c2c1 [Compound 10, 6-Bromo-3-(1-(4-iodobenzyl)-1H-imidazol-5-yl)-1H-indole] |
| 81 to 82 | COc1ccc2c(-c3cncn3CCc3c[nH]c4ccccc34)c[nH]c2c1 [Compound 88, 3-(1-(2-(1H-Indol-3-yl)ethyl)-1H-imidazol-5-yl)-6-methoxy-1H-indole] |
| 180 to 181 | Clc1ccc2c(-c3cncn3CCc3ccc4c(c3)OCO4)c[nH]c2c1 [Compound 40, 3-(1-(2-(Benzo[d][1,3]dioxol-5-yl)ethyl)-1H-imidazol-5-yl)-6-chloro-1H-indole] |
| 66 to 67 | COc1ccc(Cn2cncc2-c2c[nH]c3cccc(F)c23)cc1 [Compound 59, 4-Fluoro-3-(1-(4-methoxybenzyl)-1H-imidazol-5-yl)-1H-indole] |
| 181 to 182 | COc1ccc(Cn2cncc2-c2c[nH]c3ccc(F)cc23)cc1 [Compound 12, 5-Fluoro-3-(1-(4-methoxybenzyl)-1H-imidazol-5-yl)-1H-indole] |
| 150 to 151 | COc1ccc(OC)c(CCn2cncc2-c2c[nH]c3ccc(F)cc23)c1 [Compound 30, 3-(1-(2,5-Dimethoxyphenethyl)-1H-imidazol-5-yl)-5-fluoro-1H-indole] |
| 67 to 68 | COc1ccc(Cn2cncc2-c2c[nH]c3ccc(OC)cc23)cc1 [Compound 64, 5-Methoxy-3-(1-(4-methoxybenzyl)-1H-imidazol-5-yl)-1H-indole] |
| 176 to 177 | Brc1ccc2[nH]cc(-c3cncn3CCc3ccc4c(c3)OCO4)c2c1 [Compound 41, 3-(1-(2-(Benzo[d][1,3]dioxol-5-yl)ethyl)-1H-imidazol-5-yl)-5-bromo-1H-indole] |
| 181 to 182 | Fc1cccc2[nH]cc(-c3cncn3CCc3ccccc3)c12 [Compound 51, 4-Fluoro-3-(1-phenethyl-1H-imidazol-5-yl)-1H-indole] |
| 179 to 180 | Clc1cccc2c(-c3cncn3Cc3ccccc3)c[nH]c12 [Compound 47, 3-(1-Benzyl-1H-imidazol-5-yl)-7-chloro-1H-indole] |
| 59 to 60 | COc1ccc(CCn2cncc2-c2c[nH]c3c(Cl)cccc23)cc1 [Compound 69, 7-Chloro-3-(1-(4-methoxyphenethyl)-1H-imidazol-5-yl)-1H-indole] |
| > 200 | Clc1ccc2[nH]cc(-c3cncn3CCc3ccc4c(c3)OCO4)c2c1 [Compound 39, 3-(1-(2-(Benzo[d][1,3]dioxol-5-yl)ethyl)-1H-imidazol-5-yl)-5-chloro-1H-indole] |
| 165 to 166 | Clc1cccc2c(-c3cncn3Cc3c[nH]c4ccccc34)c[nH]c12 [Compound 77, 3-(1-((1H-Indol-3-yl)methyl)-1H-imidazol-5-yl)-7-chloro-1H-indole] |
| 65 to 66 | COc1ccc2[nH]cc(-c3cncn3Cc3ccccc3)c2c1 [Compound 49, 3-(1-Benzyl-1H-imidazol-5-yl)-5-methoxy-1H-indole] |
| 188 to 189 | CCCCCn1cncc1-c1c[nH]c2cccc(Cl)c12 |
| 97 to 98 | COc1ccc2[nH]cc(-c3cncn3Cc3c[nH]c4ccccc34)c2c1 [Compound 79, 3-(1-((1H-Indol-3-yl)methyl)-1H-imidazol-5-yl)-5-methoxy-1H-indole] |
